Data published in ChEMBL document CHEMBL1147059, “Replication and homologous recombination repair regulate DNA double-strand break formation by the antitumor alkylator ecteinascidin 743” (Proc Natl Acad Sci U S A, 2007).
The source made the active and inactive calls. The calls are words filed in the database; no cut-off is given here.

Legend:
[1] = Induction of chromosome damage in BRCA2 deficient Chinese hamster V-C8 cells assessed as number of radials per 100 metaphases at 2 nM for 1 hr followed by post incubation in drug-free media for 24 hrs; type: cell-based, Cricetulus griseus; details: v-c8, 1 h, 0.002 µM
[2] = Induction of chromosome damage in BRCA2 deficient Chinese hamster V-C8 cells assessed as number of radials per 100 metaphases at 5 nM for 1 hr followed by post incubation in drug-free media for 24 hrs; type: functional, Cricetulus griseus
[3] = Induction of chromosome damage in BRCA2 deficient Chinese hamster V-C8 cells assessed as number of radials per 100 metaphases at 10 nM for 1 hr followed by post incubation in drug-free media for 24 hrs; type: functional, Cricetulus griseus
CCRF-CEM [4] = experiment: Induction of DNA double strand breaks in human CEM cells at 100 nM by alkaline comet assay; type: functional, cell-based
HeLa [5] = experiment: Reduction of DNA synthesis in human HeLa cells at 30 nM after 1 hrs […]; type: functional; design: scale not given: the % may be the effect or the level left
HeLa [6] = experiment: Reduction of cellular viability in human HeLa cells at 20 nM after 1 hr by MTT assay; type: functional
HeLa [7] = experiment: Induction of DNA double strand breaks in human HeLa cells after 1 hr by neutral comet assay; type: functional, cell-based
CHO-AA8 [8] = experiment: Induction of DNA double strand breaks in Chinese hamster AA8 cells assessed as phosphorylated histone H2AX formation after 1 hr by immunostaining; type: functional, cell-based; details: Cricetulus griseus
HeLa [9] = experiment: Induction of DNA double strand breaks in human HeLa cells assessed as phosphorylated histone H2AX formation after 1 hr by immunostaining; type: functional, cell-based
CCRF-CEM [10] = experiment: Induction of DNA double strand breaks in human CEM cells assessed as phosphorylated histone H2AX formation after 1 hr by immunostaining; type: functional, cell-based
Lymphocyte = experiment: Induction of DNA double strand breaks in nonproliferating human lymphocytes at 100 nM by alkaline comet assay; type: functional, cell-based
HeLa [11] = experiment: Reversal of induction of DNA double strand breaks in human HeLa cells at >50 nM in presence of aphidicolin after 1 hr by neutral comet assay; type: functional, cell-based
HeLa [12] = experiment: Induction of DNA double strand breaks in human S-phase synchronized HeLa cells by alkaline comet assay; type: functional, cell-based
[13] = Cytotoxicity in homologous recombination repair XRCC3 gene deficient Chinese hamster irs1SF cells assessed as cell viability by MTT assay relative to wild type cells; type: functional, Cricetulus griseus
[14] = Cytotoxicity in homologous recombination repair BRCA2 gene deficient Chinese hamster V-C8 cells assessed as cell viability by MTT assay relative to wild type cells; type: functional, Cricetulus griseus
[15] = Cytotoxicity in homologous recombination repair RAD51C gene deficient Chinese hamster CL-V4B cells assessed as cell viability by MTT assay relative to wild type cells; type: functional, Cricetulus griseus
[16] = Cytotoxicity in homologous recombination repair XRCC2 gene deficient Chinese hamster irs1 cells assessed as cell viability by MTT assay relative to wild type cells; type: functional, Cricetulus griseus
[17] = Effect on cell cycle progression in Chinese hamster homologous recombination repair XRCC3 gene deficient irs1SF cells assessed as increase in accumulation at S phase at 6 nM for 1 hr followed by post incubation in drug-free media for 6 hrs relative to control; type: functional, Cricetulus griseus
[18] = Effect on cell cycle progression in Chinese hamster homologous recombination repair XRCC3 gene deficient irs1SF cells assessed as increase in accumulation at G2/M phase at 6 nM for 1 hr followed by post incubation in drug-free media for 24 hrs relative to control; type: functional, Cricetulus griseus
[19] = Induction of chromosome damage in BRCA2 deficient Chinese hamster V-C8 cells assessed as number of damaged chromosomes per 100 metaphases at 2 nM for 1 hr followed by post incubation in drug-free media for 24 hrs; type: functional, Cricetulus griseus
[20] = Induction of chromosome damage in BRCA2 deficient Chinese hamster V-C8 cells assessed as number of damaged chromosomes per 100 metaphases at 5 nM for 1 hr followed by post incubation in drug-free media for 24 hrs; type: functional, Cricetulus griseus
[21] = Induction of chromosome damage in BRCA2 deficient Chinese hamster V-C8 cells assessed as number of damaged chromosomes per 100 metaphases at 100 nM for 1 hr followed by post incubation in drug-free media for 24 hrs; type: functional, Cricetulus griseus
[22] = Induction of chromosome damage in BRCA2 deficient Chinese hamster V-C8 cells assessed as number of radials per 100 metaphases at 1 nM for 1 hr followed by post incubation in drug-free media for 24 hrs; type: functional, Cricetulus griseus
CHO-AA8 [23] = experiment: Effect on cell cycle progression in Chinese hamster AA8 cells assessed as accumulation at G2 phase at 140 nM; type: functional, cell-based; details: Cricetulus griseus
CHO-AA8 [24] = experiment: Effect on cell cycle progression in Chinese hamster AA8 cells assessed as increase in accumulation at G2/M phase at 6 nM for 1 hr followed by post incubation in drug-free media for 6 hrs relative to control; type: functional, cell-based; details: Cricetulus griseus
CHO-AA8 [25] = experiment: Effect on cell cycle progression in Chinese hamster AA8 cells assessed as accumulation at S phase at 140 nM; type: functional, cell-based; details: Cricetulus griseus
[26] = Effect on cell cycle distribution in Chinese hamster homologous recombination repair XRCC3 gene deficient irs1SF cells after 1 hr followed by post incubation in drug-free media; type: functional, Cricetulus griseus
CHO-AA8 [27] = experiment: Effect on cell cycle distribution in Chinese hamster AA8 cells assessed as isotoxic dose after 1 hr; type: functional, Cricetulus griseus
CHO-AA8 [28] = experiment: Induction of DNA double strand breaks in Chinese hamster AA8 cells at 100 nM after 1 hr by comet assay; type: functional, Cricetulus griseus
[29] = Induction of DNA double strand breaks in Chinese hamster homologous recombination repair XRCC3 gene deficient irs1SF cells at 100 nM after 1 hr by comet assay; type: functional, Cricetulus griseus
V79 [30] = experiment: Induction of chromosome damage in Chinese hamster V79 cells assessed as number of damaged chromosomes per 100 metaphases at 10 nM for 1 hr followed by post incubation in drug-free media for 24 hrs; type: functional, Cricetulus griseus
V79 [31] = experiment: Induction of chromosome damage in Chinese hamster V79 cells assessed as number of damaged chromosomes per 100 metaphases at 50 nM for 1 hr followed by post incubation in drug-free media for 24 hrs; type: functional, Cricetulus griseus
V79 [32] = experiment: Induction of chromosome damage in Chinese hamster V79 cells assessed as number of damaged chromosomes per 100 metaphases at 100 nM for 1 hr followed by post incubation in drug-free media for 24 hrs; type: functional, Cricetulus griseus
V79 [33] = experiment: Induction of chromosome damage in Chinese hamster V79 cells assessed as number of radials per 100 metaphases at 10 nM for 1 hr followed by post incubation in drug-free media for 24 hrs; type: functional, Cricetulus griseus
V79 [34] = experiment: Induction of chromosome damage in Chinese hamster V79 cells assessed as number of radials per 100 metaphases at 50 nM for 1 hr followed by post incubation in drug-free media for 24 hrs; type: functional, Cricetulus griseus
V79 [35] = experiment: Induction of chromosome damage in Chinese hamster V79 cells assessed as number of radials per 100 metaphases at 100 nM for 1 hr followed by post incubation in drug-free media for 24 hrs; type: functional, Cricetulus griseus
[36] = Induction of chromosome damage in BRCA2 deficient Chinese hamster V-C8 cells assessed as number of damaged chromosomes per 100 metaphases at 1 nM for 1 hr followed by post incubation in drug-free media for 24 hrs; type: functional, Cricetulus griseus

## COc1cc2c(cc1O)CCN[C@]21CS[C@@H]2c3c(OC(C)=O)c(C)c4c(c3[C@H](COC1=O)N1[C@@H]2[C@H]2c3c(cc(C)c(OC)c3O)C[C@@H]([C@@H]1O)N2C)OCO4 [TRABECTEDIN]
[1]
  Activity: 1
[2]
  Activity: 2
[3]
  Activity: 3
CCRF-CEM [4]
  Activity: Active
HeLa [5]
  Activity: 50%
HeLa [6]
  Activity: 50%
HeLa [7]
  Activity: Dose-dependent effect
CHO-AA8 [8]
  Activity: Active
HeLa [9]
  Activity: Active
CCRF-CEM [10]
  Activity: Active
Lymphocyte
  Activity: inactive
HeLa [11]
  Activity: Active
HeLa [12]
  Activity: Toxic
[13]
  Fold change: 23
[14]
  Fold change: 18
[15]
  Fold change: 8
[16]
  Fold change: 8
[17]
  Activity: 65%
[18]
  Activity: 35%
[19]
  Activity: 42
[20]
  Activity: 90
[21]
  Activity: 100
[22]
  Activity: 1
CHO-AA8 [23]
  Activity: Active
CHO-AA8 [24]
  Activity: inactive
CHO-AA8 [25]
  Activity: Active
[26]
  IC50: 6 nM
CHO-AA8 [27]
  Activity: 140 nM
CHO-AA8 [28]
  Activity: 20%
[29]
  Activity: 19%
V79 [30]
  Activity: 1
V79 [31]
  Activity: 50
V79 [32]
  Activity: 57
V79 [33]
  Activity: 0
V79 [34]
  Activity: 27
V79 [35]
  Activity: 24
[36]
  Activity: 14
